In ChEMBL document CHEMBL3286373, “Toward the Development of Bivalent Ligand Probes of Cannabinoid CB1 and Orexin OX1 Receptor Heterodimers” (ACS Med Chem Lett, 2014):

Tests used:
[1] = target: T1, Orexin/Hypocretin receptor type 1 (Homo sapiens) (UniProt O43613); assay: Antagonist activity at OX1 receptor (unknown origin) expressed in RD-HGA16 cells assessed as inhibition of orexin A-induced calcium mobilization by fluorometric imaging plate reader analysis; type: functional, cell-based
T1 sequence (whole entry): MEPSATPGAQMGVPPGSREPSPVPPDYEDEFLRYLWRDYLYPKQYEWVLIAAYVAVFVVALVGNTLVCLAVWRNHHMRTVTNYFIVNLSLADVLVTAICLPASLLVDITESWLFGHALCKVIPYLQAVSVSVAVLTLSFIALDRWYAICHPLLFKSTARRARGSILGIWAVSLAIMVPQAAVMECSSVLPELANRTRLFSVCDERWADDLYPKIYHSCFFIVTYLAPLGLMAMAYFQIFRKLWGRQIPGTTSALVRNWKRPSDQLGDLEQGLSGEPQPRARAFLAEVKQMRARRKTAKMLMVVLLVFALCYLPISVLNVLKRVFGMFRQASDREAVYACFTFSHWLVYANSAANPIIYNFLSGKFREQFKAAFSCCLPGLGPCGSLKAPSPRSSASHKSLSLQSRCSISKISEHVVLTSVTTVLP

[2] = target: T2, Cannabinoid CB1 receptor/orexin receptor 1 complex (Homo sapiens) (UniProt P21554+O43613); conditions: RD-HGA16
[3] = target: T2, Cannabinoid CB1 receptor/orexin receptor 1 complex (Homo sapiens); conditions: RD-HGA16; remark: listed apart in the source
[4] = target: Cannabinoid receptor 1 (Homo sapiens) (UniProt P21554); conditions: RD-HGA16
Chain of Cannabinoid receptor 1 (Homo sapiens) (P21554 whole entry): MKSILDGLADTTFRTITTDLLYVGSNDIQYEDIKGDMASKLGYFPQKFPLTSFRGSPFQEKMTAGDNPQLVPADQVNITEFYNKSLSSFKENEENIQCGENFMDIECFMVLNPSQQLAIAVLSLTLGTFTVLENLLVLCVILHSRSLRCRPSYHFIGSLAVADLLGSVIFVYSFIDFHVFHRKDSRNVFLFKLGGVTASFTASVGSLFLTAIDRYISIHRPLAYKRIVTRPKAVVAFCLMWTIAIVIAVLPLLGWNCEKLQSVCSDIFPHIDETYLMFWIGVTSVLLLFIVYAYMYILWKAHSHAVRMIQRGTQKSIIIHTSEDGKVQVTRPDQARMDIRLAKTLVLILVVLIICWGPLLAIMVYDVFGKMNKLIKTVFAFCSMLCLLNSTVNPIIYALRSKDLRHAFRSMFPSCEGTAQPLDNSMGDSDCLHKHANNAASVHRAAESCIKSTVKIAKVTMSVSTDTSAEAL

Structure (SMILES) | Ke [1] | Ke [2] | Ke [3] | Ke [4]
CCCCCCOc1ccc(CC2c3cc(OC)c(OC)cc3CCN2CC(=O)NCc2ccccc2)cc1OC (centres undefined) | 120 nM |  |  | 
CCCCCCOc1cc2c(cc1OC)CCN(CC(=O)NCc1ccccc1)C2Cc1ccc(OC)c(OC)c1 (centres undefined) | 310 nM |  |  | 
CCCC(=O)Oc1ccc(CC2c3cc(OC)c(OC)cc3CCN2CC(=O)NCc2ccccc2)cc1OC (centres undefined) | 43 nM |  |  | 
CCCC(=O)Oc1cc2c(cc1OC)CCN(CC(=O)NCc1ccccc1)C2Cc1ccc(OC)c(OC)c1 (centres undefined) | 78 nM |  |  | 
COc1ccc(CC2c3cc(OC)c(OC)cc3CCN2CC(=O)NCc2ccccc2)cc1OC (centres undefined) | 200 nM |  |  | 
Cc1nc2ccc(NC(=O)Nc3ccnc4cccnc34)cc2o1 | 45 nM | > 10000 nM | 0.032 µM | > 10000 nM
CCCCCCCNC(=O)[C@@H](c1ccccc1)N1CCc2cc(OC)c(OC)cc2C1Cc1ccc(OC)c(OC)c1 (some centres undefined) | 22 nM |  |  | 
CCCCCCCNC(=O)CN1CCc2cc(OC)c(OC)cc2C1Cc1ccc(OC)c(OC)c1 (centres undefined) | 590 nM |  |  | 

The next lines start with the values.

Ke [1] | Ke [2] | Ke [3] | Ke [4] | Structure (SMILES)
8600 nM | 580 nM | > 10 µM | 8000 nM | COc1ccc(CC2c3cc(OCCCCCCC(=O)NCCOCCOCCOCCNC(=O)c4nn(-c5ccc(Cl)cc5Cl)c(-c5ccc(Cl)cc5)c4C)c(OC)cc3CCN2CC(=O)NCc2ccccc2)cc1OC (centres undefined)
> 10000 nM | 110 nM | 5.9 µM | 1800 nM | COc1cc2c(cc1OC)C(Cc1ccc(OC(=O)CCCCCCN(C)CCCCCCCCCCNC(=O)c3nn(-c4ccc(Cl)cc4Cl)c(-c4ccc(Cl)cc4)c3C)c(OC)c1)N(CC(=O)NCc1ccccc1)CC2 (centres undefined)
> 10000 nM | 410 nM | > 10 µM | 1100 nM | COc1cc2c(cc1OC)C(Cc1ccc(OC(=O)CCCCCCN(C)CCCCCCCCCCCCNC(=O)c3nn(-c4ccc(Cl)cc4Cl)c(-c4ccc(Cl)cc4)c3C)c(OC)c1)N(CC(=O)NCc1ccccc1)CC2 (centres undefined)
8800 nM | 1200 nM | > 10 µM | 2100 nM | COc1ccc(CC2c3cc(OC(=O)CCCCCCN(C)CCCCCCCNC(=O)c4nn(-c5ccc(Cl)cc5Cl)c(-c5ccc(Cl)cc5)c4C)c(OC)cc3CCN2CC(=O)NCc2ccccc2)cc1OC (centres undefined)
8460 nM | 610 nM | > 10 µM | 1800 nM | COc1cc2c(cc1OC)C(Cc1ccc(OC(=O)CCCCCCN(C)CCCCCCCNC(=O)c3nn(-c4ccc(Cl)cc4Cl)c(-c4ccc(Cl)cc4)c3C)c(OC)c1)N(CC(=O)NCc1ccccc1)CC2 (centres undefined)
5500 nM | 230 nM | > 10 µM | 3000 nM | COc1ccc(CC2c3cc(OC)c(OC)cc3CCN2C(C(=O)NCCCCCCCN(C)CCCCCCCNC(=O)c2nn(-c3ccc(Cl)cc3Cl)c(-c3ccc(Cl)cc3)c2C)c2ccccc2)cc1OC (centres undefined)
3500 nM | 420 nM | 4.5 µM | 1800 nM | COc1ccc(CC2c3cc(OC(=O)CCCCCCN(C)CCCCOCCCCOCCCCOCCNC(=O)c4nn(-c5ccc(Cl)cc5Cl)c(-c5ccc(Cl)cc5)c4C)c(OC)cc3CCN2CC(=O)NCc2ccccc2)cc1OC (centres undefined)
